pIC50: −log10 of the molar value.

The AC50 is the midpoint of the concentration-response curve, whichever way the signal moves. The pIC50 is the negative decadic logarithm of the IC50, by convention in mol/L.

Test [1] has as its system Neutrophil. Put plainly: Inhibition of LTB4 production in A23187-stimulated human neutrophils at 0.001 to 1000 microM incubated for 30 mins by ELISA. The class given is functional, cell-based.
Test [2] deals with T1, Leukotriene A-4 hydrolase (Homo sapiens, UniProt P09960).
T1 sequence (P09960 whole entry): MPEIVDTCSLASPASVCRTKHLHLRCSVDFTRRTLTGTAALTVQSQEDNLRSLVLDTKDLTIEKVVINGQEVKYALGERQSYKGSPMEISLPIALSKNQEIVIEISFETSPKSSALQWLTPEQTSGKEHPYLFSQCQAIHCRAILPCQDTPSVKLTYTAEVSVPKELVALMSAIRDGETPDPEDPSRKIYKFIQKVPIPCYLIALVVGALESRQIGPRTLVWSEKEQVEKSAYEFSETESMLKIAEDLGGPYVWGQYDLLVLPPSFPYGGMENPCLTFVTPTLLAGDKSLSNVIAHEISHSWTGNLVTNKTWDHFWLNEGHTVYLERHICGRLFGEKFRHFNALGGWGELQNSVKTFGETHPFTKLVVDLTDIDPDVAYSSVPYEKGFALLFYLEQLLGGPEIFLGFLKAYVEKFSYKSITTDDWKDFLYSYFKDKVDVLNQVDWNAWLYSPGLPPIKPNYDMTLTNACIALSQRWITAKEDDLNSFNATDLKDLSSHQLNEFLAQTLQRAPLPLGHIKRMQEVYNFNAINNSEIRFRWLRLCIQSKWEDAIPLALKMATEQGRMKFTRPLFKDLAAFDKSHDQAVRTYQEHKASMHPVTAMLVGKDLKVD
Description: Activation of N-terminal (His)6 and Xpress-tagged LTA4H (unknown origin) expressed in Escherichia coli BL21(DE3) cells assessed as increase in aminopeptidase activity by measuring p-nitroanilide release using L-Alanine-p-nitroanilide incubated for 10 mins by UV plate reader based assay.

Test [3] has as its target T2, Leukotriene A-4 hydrolase (Homo sapiens) (UniProt P09960).
T2 sequence (whole entry): T1 sequence (P09960 whole entry)
Description: Activation of N-terminal (His)6 and Xpress-tagged LTA4H (unknown origin) expressed in Escherichia coli BL21(DE3) cells assessed as increase in aminopeptidase activity by measuring reciprocal allosteric coupling constant for hyperbolic mixed predominantly catalytic activation using L-Alanine-p-nitroanilide incubated for 10 mins by p-nitroanilide release detection based UV plate reader based assay.

The target in test [4] is T2, Leukotriene A-4 hydrolase (Homo sapiens). Put plainly: Activation of N-terminal (His)6 and Xpress-tagged LTA4H (unknown origin) expressed in Escherichia coli BL21(DE3) cells assessed as increase in aminopeptidase activity by measuring factor by which activator affects catalytic constant for hyperbolic mixed predominantly catalytic activation using L-Alanine-p-nitroanilide incubated for 10 mins by p-nitroanilide release detection based UV plate reader based assay.

Test [5] shares this target. Description: Activation of N-terminal (His)6 and Xpress-tagged LTA4H (unknown origin) expressed in Escherichia coli BL21(DE3) cells assessed as increase in aminopeptidase activity by measuring dissociation constant (KX) for hyperbolic mixed predominantly catalytic activation using L-Alanine-p-nitroanilide incubated for 10 mins by p-nitroanilide release detection based UV plate reader based assay.

The target is the same in test [6]. Description: (§1) Inhibition of N-terminal (His)6 and Xpress-tagged LTA4H (unknown origin) expressed in Escherichia coli BL21(DE3) cells assessed as reduction in aminopeptidase activity by measuring p-nitroanilide release using L-arginine-p-nitroanilide incubated for 10 mins by UV plate reader based assay.
Test [7] deals with T1, Leukotriene A-4 hydrolase. The test is described as §1.
Test [8] addresses T2, Leukotriene A-4 hydrolase (Homo sapiens). Put plainly: Inhibition of N-terminal (His)6 and Xpress-tagged LTA4H (unknown origin) expressed in Escherichia coli BL21(DE3) cells assessed as reduction in aminopeptidase activity by measuring PGP hydrolysis incubated for 30 mins.

Consider `COc1ccc(Cc2ccc(-c3csc(N)n3)cc2)cc1`, for which the inhibition result in test [1], in test [6] and in test [8] was “Dose-dependent effect” each time. For the same compound, in test [2], the AC50 is 0.21 µM. Also, the K is 4.34 in test [3] and 0.05 µM in test [5]. The fold change (FC) in test [4] worked out at 26.4. The negative logarithm of the IC50 (pIC50) in test [7] is 4.86.

Values taken from ChEMBL document CHEMBL4414660, “Effect of Modifier Structure on the Activation of Leukotriene A4 Hydrolase Aminopeptidase Activity” (J Med Chem, 2019).
